Test results taken from patent publication US20060040253A1, “Use of Smad3 inhibitor in the treatment of fibrosis dependent on epithelial to mesenchymal transition as in the eye and kidney” (priority 2003, published 2006).

What was measured:
α-TN4 = assay: Snail up-regulation in α-TN4 lens epithelial cell line after TGF-β addition; assay type: cell-based, mouse; details: prior to up-regulation of αSMA
ARPE-19 cells [1] = assay: Production of PDGF, TGF-β1 and collagen type I in ARPE-19 cells treated with TGF-β2; assay type: cell-based, human; details: 48 hr
Experimental: Expression of PDGF-BB in ARPE-19 cells was assessed by western blot of cell lysates using PDGF-B (H-55, Santa Cruz Biotechnology, Inc.). Enzyme-linked immunosorbent assays (ELISAs) for PDGF-BB, PDGF-AB and TGF-β1 (R & D Systems, Inc., Minneapolis, Minn.) were used to determine the concentration of each peptide in the culture medium. ARPE-19 cells were grown in 6-well plates to near confluence and then cultured in 500 μl of serum-free DMEM/F-12 supplemented with antibiotics in the presence or absence of human recombinant TGF-β2 (1.0 ng/ml R & D Systems, Inc., Minneapolis, Minn.) for 48 or 96 hrs. Nine wells were prepared for each culture condition. Medium was processed for ELISAs for determination of the concentration of PDGF-BB and -AB according to the manufacturers' protocols. Medium (48 hr) was also processed for the determination of TGF-β1 by an ELISA kit (R & D Systems, Minneapolis, Minn.). Type I collagen was quantified in medium and sonicated cell lysates (48 hr) and processed for an ELISA system for type I collagen C-terminal peptide (PIP ELISA kit, Takara, Tokyo, Japan). Confluent cells grown on a chamber slides (Nunc) were immunostained for collagen type I (1:100 dilution in PBS, Southern Biotechnology).

[2] = system: renal tubular epithelial cells; assay: TGF-β1-induced EMT and autoinduction in primary culture of renal tubular epithelial cells; assay type: cell-based, mouse; details: wild-type cells, TGF-β1 10 ng/ml
Experimental: Minced kidneys were washed with 3 changes of cold PBS containing 1 mM EDTA and digested in 0.25% trypsin solution (Gibco BRL, Grand Island, N.Y.) in a shaking incubator at 37° C. for 2 h. Trypsin was neutralized with growth medium (DMEM/10% FBS containing 100 unit/ml penicillin and 0.1 mg/ml streptomycin). The suspension was triturated by pipetting and passed through a 100 μm cell strainer (Becton Dickinson Labware, Franklin Lakes, N.J.). The filtrate consisting mostly of dispersed renal tubules was plated onto culture dishes (Nalge Nunc International, Naperville, Ill.) and 2-well chamber slides (Nunc Lab-Tek II-CC2, Nalge Nunc International), and incubated at 37° C. in a CO2 incubator with medium changes every 2 days. Experiments were carried out in serum-free DMEM. EMT was induced by an addition of 10 ng/ml TGF-β1 (R&D Systems, Minneapolis, Minn.). Mouse monoclonal anti-TGF-β neutralizing antibody (clone: 1D11, R & D Systems) was used at a concentration of 20 μg/ml with mouse IgG (Sigma, St Louis, Mo.) as a control.
Histological sections were prepared from tissues fixed in 4% paraformaldehyde in 0.1 M phosphate buffer, pH 7.4, and embedded in paraffin. Cryosections and bottom sheets of BioFlex were fixed in cold acetone and subjected to indirect immunofluorescence with anti-E-cadherin (clone: DECMA-1, Sigma, St Louis, Mo.), anti-α-SMA (clone: 1A4, NeoMarkers, Fremont, Calif.), anti-mouse type I collagen (Southern Biotechnology, Birmingham, Ala.) and anti-mouse F4/80 antibodies (clone: A3-1, BMA, Augst, Switzerland). As second antibodies, FITC-anti-rat IgG (Sigma), TRITC-anti-mouse IgG (Sigma) or Cy3-anti-goat IgG (Sigma) were used.
Cells and tissues were lysed in buffer containing 1% Nonidet P-40, 25 mM Tris-HCl, pH 7.5, 150 mM NaCl, 10 mM EDTA and 1:50 dilution of a protease inhibitor cocktail (P-2714, Sigma). Proteins were separated by SDS-PAGE, transferred to nitrocellulose membranes, and blocked in 5% skim milk in PBS. After incubation with primary antibodies against E-cadherin (clone: 36, Transduction Laboratories, Lexington, Ky.), α-SMA (clone: 1A4) and actin antibodies (Sc-1616, Santa Cruz Biochemicals, Santa Cruz, Calif.), blots were reacted with POD-conjugated goat anti-mouse IgG secondary antibody (Sigma) and developed with ECL (Amersham Biosciences, Buckingshire, UK).
Total RNA was extracted with TRIzol reagent (Invitrogen, Carlsbad, Calif.). RNA (20 μg/lane), separated in 1% agarose-formaldehyde gels and transferred to Hybond-HX nylon membranes (Amersham). Membranes were hybridized with cDNA probes for mouse Snail and TGF-β1 mRNA labeled with [P^32] dCTP by random primed DNA synthesis using the same primers as above (Rediprime II, Amersham Pharmacia Inc., Piscataway, N.J.). Filters were exposed to X-ray film at −80° C. for 2 to 3 d. […]

ARPE-19 cells [3] = assay: Proliferation of ARPE-19 cells (MTT assay); assay type: cell-based, human; details: sparse cultures, up to 120 hr; PDGF-BB 5 ng/ml, TGF-β2 1 ng/ml
Experimental: Effects of adding TGF-β2, PDGF-BB, and/or anti-PDGF-B-neutralizing antibody on proliferation of ARPE-19 cells were assessed using the MTT assay (TACS MTT Cell Proliferation Assay Kit, Trevigen, Gaithersburg, Md., USA) according to manufacturer's instruction. ARPE 19 cells suspended in DMEM/F-12 supplemented with 15% fetal calf serum (2×10^4/100 μl/well) were seeded in 96-well culture plates (8 wells for each condition). After 12 hrs cells were changed to 100 μl serum-free culture medium and cultured for an additional 120 hr supplemented with PDGF-BB (5.0 ng/ml) or TGF-β2 (1.0 ng/ml), with either neutralizing anti-PDGF-B antibody (20 μg/ml) or non-immune IgG (20 μg/ml) as control. At the end of each culture interval, MTT reagent (10 μl) was added to each well and the incubation continued for an additional 5 hr at 37° C. Optical density at 570 nm was measured 4 hr after adding the lysis solution contained in the kit.

**Q.** Which “earliest time of snail up-regulation after TGF-β addition” value (α-TN4) does the source give for TGF-β here?
**A.** The value was 30 min.

**Q.** “TGF-β1: exogenous TGF-β1 (R&D Systems), growth factor used to induce EMT” was tested. Which “amount of type I collagen in culture medium and cell lysate (ELISA)” value (ARPE-19 cells [1]) did it give?
**A.** Its value is “increase”.

**Q.** And the “Snail mRNA (Northern blot)” value ([2]; 8 h, not in Smad3-null cells)?
**A.** The value was “de novo expression of Snail mRNA”.

**Q.** What about the “TGF-β1 mRNA expression (autoinduction)” value ([2]; 24 h, vs non-treated wild-type, not in Smad3-null cells) of the same molecule?
**A.** Its value is “enhanced expression of TGF-β1 mRNA”.

**Q.** What about the “cell morphology (phase-contrast microscopy)” value ([2]; 24 h, Smad3-null cells retained epithelial monolayer) of the same molecule?
**A.** The value was “spindle-shaped, fibroblastic appearance”.

**Q.** And the “E-cadherin and α-SMA by dual immunofluorescence” value ([2]; 24 h, not seen in Smad3-null cells)?
**A.** Its value is “Marked reduction of E-cadherin and de novo expression of α-SMA”.

B1: PDGF-BB: exogenous PDGF-BB, a potent mitogen, 5.0 ng/ml (protein, UniProt P01127 82-190, looked up)
Platelet-derived growth …: SLGSLTIAEPAMIAECKTRTEVFEISRRLIDRTNANFLVWPPCVEVQRCSGCCNNRNVQCRPTQVQLRPVQVRKIEIVRKKPIFKKATVTLEDHLACKCETVAAARPVT
modifications: homodimer PDGF-BB
**Q.** B1 was tested. Which “growth of the cells (MTT assay)” value (ARPE-19 cells [3]) did it give?
**A.** The value was “enhanced”.
